Measured values: ChEMBL document CHEMBL5210121, “Affinity On-target Cellular Literature for EUbOPEN Chemogenomics Library wave 3” (2023)

Columns and labels:
[1] = biological target: Mas-related G-protein coupled receptor member X2 (Homo sapiens, UniProt Q96LB1); experiment: Affinity On-target Cellular interaction (PRESTO-Tango concentration response assay (by the NIMH-PDSP)) EUB0000345a MRGPRX2; set-up: mode of action Negative control for (R)-ZINC 3573, recommended concentration 1 uM
D(4) dopamine receptor = D(4) dopamine receptor (Homo sapiens, UniProt P21917); experiment: Affinity On-target Cellular interaction (Fluorometric Imaging Plate Reader (FLIPR) Assay (agonist activity at human D4.4 receptor in HEK293 cells coexpressing G-alpha-qo5)) EUB0000332a DRD4; type: cell-based; set-up: mode of action Negative control for ABT-724, recommended concentration 100 nM
[2] = biological target: Cystic fibrosis transmembrane conductance regulator (Homo sapiens, UniProt P13569, F508DEL); experiment: Affinity On-target Cellular interaction (CFTR Restoration Trans-Epithelial Current Clamp (TECC) assay (in HBE cells from F508del CF patients)) EUB0000264b CFTR; type: cell-based; set-up: mode of action Negative control for A-1596586, recommended concentration 1 uM
Sequence of Cystic fibrosis transmembrane conductance regulator (P13569 as listed by the source): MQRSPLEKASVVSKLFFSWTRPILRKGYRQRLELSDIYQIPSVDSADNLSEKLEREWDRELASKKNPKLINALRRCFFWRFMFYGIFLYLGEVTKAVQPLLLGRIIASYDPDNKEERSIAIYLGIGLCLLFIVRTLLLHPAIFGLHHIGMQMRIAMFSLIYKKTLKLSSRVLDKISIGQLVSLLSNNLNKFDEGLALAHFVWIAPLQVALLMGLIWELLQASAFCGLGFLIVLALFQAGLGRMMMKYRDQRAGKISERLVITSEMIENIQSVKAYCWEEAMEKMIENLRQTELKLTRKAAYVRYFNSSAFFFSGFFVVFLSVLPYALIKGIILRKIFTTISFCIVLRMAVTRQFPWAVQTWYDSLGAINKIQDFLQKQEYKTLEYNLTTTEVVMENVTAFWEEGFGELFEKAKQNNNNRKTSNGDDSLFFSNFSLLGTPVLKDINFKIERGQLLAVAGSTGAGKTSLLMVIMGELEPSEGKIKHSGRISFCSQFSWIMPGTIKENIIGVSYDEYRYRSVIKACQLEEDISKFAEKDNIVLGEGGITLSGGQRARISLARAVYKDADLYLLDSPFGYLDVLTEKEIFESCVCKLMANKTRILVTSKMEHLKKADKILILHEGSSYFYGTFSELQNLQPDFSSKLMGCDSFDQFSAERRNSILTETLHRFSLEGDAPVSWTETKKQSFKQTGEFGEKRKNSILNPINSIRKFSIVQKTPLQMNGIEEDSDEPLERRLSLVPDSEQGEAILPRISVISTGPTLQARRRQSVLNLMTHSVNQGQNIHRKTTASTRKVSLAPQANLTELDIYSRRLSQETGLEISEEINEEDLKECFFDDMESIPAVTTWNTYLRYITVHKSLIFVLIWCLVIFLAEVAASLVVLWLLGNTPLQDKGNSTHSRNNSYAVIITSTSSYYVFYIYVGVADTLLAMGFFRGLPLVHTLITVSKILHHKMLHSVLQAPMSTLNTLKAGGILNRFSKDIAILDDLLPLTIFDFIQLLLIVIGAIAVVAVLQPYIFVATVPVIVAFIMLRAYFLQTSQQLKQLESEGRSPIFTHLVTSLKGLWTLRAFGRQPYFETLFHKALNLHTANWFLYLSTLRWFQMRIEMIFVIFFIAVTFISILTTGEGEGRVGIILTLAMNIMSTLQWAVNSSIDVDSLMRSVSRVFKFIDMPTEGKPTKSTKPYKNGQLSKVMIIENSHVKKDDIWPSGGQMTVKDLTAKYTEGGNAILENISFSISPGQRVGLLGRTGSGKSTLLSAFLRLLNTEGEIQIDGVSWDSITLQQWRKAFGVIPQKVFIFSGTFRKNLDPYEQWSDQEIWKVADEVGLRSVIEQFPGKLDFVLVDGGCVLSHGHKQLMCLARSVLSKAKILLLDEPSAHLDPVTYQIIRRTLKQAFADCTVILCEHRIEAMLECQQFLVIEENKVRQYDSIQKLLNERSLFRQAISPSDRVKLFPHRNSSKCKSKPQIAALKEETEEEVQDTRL

[3] = biological target: Endothelin receptor type B (Homo sapiens, UniProt P24530); experiment: Affinity On-target Cellular interaction (Cellular functional assay (antagonist effect, Eurofins)) EUB0000339a EDNRB; set-up: mode of action Negative control for A-192621, recommended concentration 100 nM
Sequence of Endothelin receptor type B (P24530 whole entry): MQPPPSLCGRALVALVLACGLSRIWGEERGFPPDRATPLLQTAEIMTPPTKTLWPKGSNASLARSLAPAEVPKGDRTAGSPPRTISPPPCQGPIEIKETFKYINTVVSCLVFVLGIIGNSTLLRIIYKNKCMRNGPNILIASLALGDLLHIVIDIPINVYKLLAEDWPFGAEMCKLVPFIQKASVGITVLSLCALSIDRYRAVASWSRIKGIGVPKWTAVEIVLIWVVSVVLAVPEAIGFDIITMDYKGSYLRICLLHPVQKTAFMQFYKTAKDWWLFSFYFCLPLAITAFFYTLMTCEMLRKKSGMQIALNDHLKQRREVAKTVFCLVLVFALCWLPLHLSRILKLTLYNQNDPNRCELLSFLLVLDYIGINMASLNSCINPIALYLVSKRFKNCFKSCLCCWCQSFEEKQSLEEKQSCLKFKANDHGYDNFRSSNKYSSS

TGF-beta receptor type-1 = TGF-beta receptor type-1 (Homo sapiens, UniProt P36897); experiment: Affinity On-target Cellular interaction (NanoBRET assay (HEK293T cells)) EUB0000710a TGFBR1
Activin receptor type-1B = Activin receptor type-1B (Homo sapiens, UniProt P36896); experiment: Affinity On-target Cellular interaction (NanoBRET assay (HEK293T cells)) EUB0000710a ACVR1B
[4] = biological target: Serine/threonine-protein kinase TBK1 (Homo sapiens, UniProt Q9UHD2)
[5] = biological target: Inhibitor of nuclear factor kappa-B kinase subunit epsilon (Homo sapiens, UniProt Q14164)
[6] = biological target: Proteinase-activated receptor 1 (Homo sapiens, UniProt P25116); experiment: Affinity On-target Cellular interaction (Functional cellular assay in HEK cells expressing F2R) EUB0000333a F2R; type: cell-based; set-up: mode of action Negative control for BAY-386, recommended concentration 100 nM
[7] = biological target: Lutropin-choriogonadotropic hormone receptor (Homo sapiens, UniProt P22888); experiment: Affinity On-target Cellular interaction (Cell-based assay (LH Antagonism)) EUB0000340a LHCGR; set-up: mode of action Negative control for BAY-899, recommended concentration 1 uM
[8] = biological target: Bifunctional epoxide hydrolase 2 (Homo sapiens, UniProt P34913); experiment: Affinity On-target Cellular interaction (ELISA (inhibition of sEH in human Hep G2 cells)) EUB0000542a EPHX2; type: cell-based; set-up: mode of action Inhibitor, recommended concentration 100 nM
Sequence of Bifunctional epoxide hydrolase 2 (P34913 whole entry): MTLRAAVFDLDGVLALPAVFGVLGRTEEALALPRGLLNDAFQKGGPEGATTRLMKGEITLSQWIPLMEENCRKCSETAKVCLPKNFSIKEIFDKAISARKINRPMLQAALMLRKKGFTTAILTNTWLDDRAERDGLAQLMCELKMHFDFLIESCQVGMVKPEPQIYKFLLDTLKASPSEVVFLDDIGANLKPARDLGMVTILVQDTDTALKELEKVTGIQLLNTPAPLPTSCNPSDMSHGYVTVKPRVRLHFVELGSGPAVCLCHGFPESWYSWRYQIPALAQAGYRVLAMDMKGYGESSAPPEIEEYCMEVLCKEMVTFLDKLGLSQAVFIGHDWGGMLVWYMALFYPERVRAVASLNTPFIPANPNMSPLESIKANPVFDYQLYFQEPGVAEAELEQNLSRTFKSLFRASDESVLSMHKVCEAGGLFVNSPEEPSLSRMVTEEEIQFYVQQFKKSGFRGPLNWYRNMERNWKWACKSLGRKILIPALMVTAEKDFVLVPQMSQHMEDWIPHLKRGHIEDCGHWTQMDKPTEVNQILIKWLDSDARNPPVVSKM

[9] = biological target: T1, Mitogen-activated protein kinase 1 (Homo sapiens, UniProt P28482); experiment: Affinity On-target Cellular interaction (Cellular assay (inhibition of RSK phosphorylation, A375SM cells)) EUB0000700a MAPK1
T1 sequence (P28482 whole entry): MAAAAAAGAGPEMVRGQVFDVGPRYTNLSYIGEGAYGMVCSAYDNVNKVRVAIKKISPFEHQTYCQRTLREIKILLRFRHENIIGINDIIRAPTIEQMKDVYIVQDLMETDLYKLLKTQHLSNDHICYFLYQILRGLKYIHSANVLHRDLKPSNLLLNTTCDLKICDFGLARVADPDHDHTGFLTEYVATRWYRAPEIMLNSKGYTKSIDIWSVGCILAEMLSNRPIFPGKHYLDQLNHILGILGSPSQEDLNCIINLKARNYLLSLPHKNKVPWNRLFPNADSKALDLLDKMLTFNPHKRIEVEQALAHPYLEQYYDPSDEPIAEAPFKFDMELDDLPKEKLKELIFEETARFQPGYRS

[10] = biological target: T1, Mitogen-activated protein kinase 1
[11] = biological target: Serine/threonine-protein kinase PLK1 (Homo sapiens, UniProt P53350); experiment: Affinity On-target Cellular interaction (ELISA (PLK1 phosphorylation of Ser15-p53 in HeLa cells)) EUB0000698a PLK1; type: cell-based; set-up: mode of action Inhibitor, recommended concentration 100 nM
[12] = biological target: Leucine-rich repeat serine/threonine-protein kinase 2 (Homo sapiens, UniProt Q5S007); experiment: Affinity On-target Cellular interaction (NanoBRET assay (HEK293T cells)) EUB0000706a LRRK2
[13] = Affinity On-target Cellular interaction (Cellular human mast cell degranulation assay) EUB0000714a SYK
[14] = biological target: T2, Dual specificity protein kinase CLK4 (Homo sapiens, UniProt Q9HAZ1); experiment: Affinity On-target Cellular interaction (NanoBRET assay (HEK293T cells)) EUB0000705a CLK4
T2 sequence (Q9HAZ1 whole entry): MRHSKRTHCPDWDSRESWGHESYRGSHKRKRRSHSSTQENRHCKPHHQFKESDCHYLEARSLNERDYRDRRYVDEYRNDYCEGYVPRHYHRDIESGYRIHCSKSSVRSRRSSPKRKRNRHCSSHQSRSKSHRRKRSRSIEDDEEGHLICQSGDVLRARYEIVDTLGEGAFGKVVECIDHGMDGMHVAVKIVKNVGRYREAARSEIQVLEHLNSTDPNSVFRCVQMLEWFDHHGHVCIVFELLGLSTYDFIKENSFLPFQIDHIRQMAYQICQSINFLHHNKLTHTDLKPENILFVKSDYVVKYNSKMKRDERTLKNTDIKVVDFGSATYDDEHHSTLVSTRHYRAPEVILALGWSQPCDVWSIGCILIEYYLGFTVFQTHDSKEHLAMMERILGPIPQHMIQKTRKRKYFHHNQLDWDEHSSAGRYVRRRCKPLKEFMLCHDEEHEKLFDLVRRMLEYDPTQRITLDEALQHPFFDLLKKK

[15] = biological target: T3, Dual specificity protein kinase CLK1 (Homo sapiens, UniProt P49759); experiment: Affinity On-target Cellular interaction (NanoBRET assay (HEK293T cells)) EUB0000705a CLK1
T3 sequence (P49759 whole entry): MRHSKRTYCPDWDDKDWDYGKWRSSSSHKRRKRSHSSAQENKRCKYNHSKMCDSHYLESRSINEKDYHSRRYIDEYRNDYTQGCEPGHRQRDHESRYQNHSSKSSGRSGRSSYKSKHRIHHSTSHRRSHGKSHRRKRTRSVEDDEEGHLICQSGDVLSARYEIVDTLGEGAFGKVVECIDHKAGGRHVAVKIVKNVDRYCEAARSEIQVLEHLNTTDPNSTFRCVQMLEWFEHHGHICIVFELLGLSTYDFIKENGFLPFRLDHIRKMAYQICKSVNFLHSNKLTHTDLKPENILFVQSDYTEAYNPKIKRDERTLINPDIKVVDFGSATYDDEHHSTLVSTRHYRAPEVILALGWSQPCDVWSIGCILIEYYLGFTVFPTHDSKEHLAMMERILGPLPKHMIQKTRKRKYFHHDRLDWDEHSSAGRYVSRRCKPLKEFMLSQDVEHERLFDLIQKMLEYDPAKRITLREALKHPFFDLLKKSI

[16] = biological target: Dual specificity protein kinase CLK2 (Homo sapiens, UniProt P49760); experiment: Affinity On-target Cellular interaction (NanoBRET assay (HEK293T cells)) EUB0000705a CLK2
Sequence of Dual specificity protein kinase CLK2 (P49760 whole entry): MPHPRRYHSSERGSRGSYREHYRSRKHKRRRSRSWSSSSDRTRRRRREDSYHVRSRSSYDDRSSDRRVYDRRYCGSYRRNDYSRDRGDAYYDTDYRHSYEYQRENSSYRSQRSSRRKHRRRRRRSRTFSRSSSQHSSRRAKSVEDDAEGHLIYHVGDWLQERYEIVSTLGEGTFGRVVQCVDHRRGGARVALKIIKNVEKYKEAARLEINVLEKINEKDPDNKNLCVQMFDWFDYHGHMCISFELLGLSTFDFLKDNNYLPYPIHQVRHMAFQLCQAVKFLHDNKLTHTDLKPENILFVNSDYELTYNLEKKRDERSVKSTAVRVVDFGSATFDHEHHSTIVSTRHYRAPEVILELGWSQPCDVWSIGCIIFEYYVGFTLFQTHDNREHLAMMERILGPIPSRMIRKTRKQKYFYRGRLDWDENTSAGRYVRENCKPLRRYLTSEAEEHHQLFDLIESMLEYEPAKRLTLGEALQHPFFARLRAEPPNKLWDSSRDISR

[17] = biological target: T3, Dual specificity protein kinase CLK1; experiment: Affinity On-target Cellular interaction (NanoBRET assay (HEK293T cells)) EUB0000321b CLK1; set-up: mode of action Inhibitor, recommended concentration 100 nM
[18] = biological target: T2, Dual specificity protein kinase CLK4; experiment: Affinity On-target Cellular interaction (NanoBRET assay (HEK293T cells)) EUB0000321b CLK4; set-up: mode of action Inhibitor, recommended concentration 100 nM
[19] = biological target: G-protein coupled receptor 52 (Homo sapiens, UniProt Q9Y2T5)
Sequence of G-protein coupled receptor 52 (Q9Y2T5 whole entry): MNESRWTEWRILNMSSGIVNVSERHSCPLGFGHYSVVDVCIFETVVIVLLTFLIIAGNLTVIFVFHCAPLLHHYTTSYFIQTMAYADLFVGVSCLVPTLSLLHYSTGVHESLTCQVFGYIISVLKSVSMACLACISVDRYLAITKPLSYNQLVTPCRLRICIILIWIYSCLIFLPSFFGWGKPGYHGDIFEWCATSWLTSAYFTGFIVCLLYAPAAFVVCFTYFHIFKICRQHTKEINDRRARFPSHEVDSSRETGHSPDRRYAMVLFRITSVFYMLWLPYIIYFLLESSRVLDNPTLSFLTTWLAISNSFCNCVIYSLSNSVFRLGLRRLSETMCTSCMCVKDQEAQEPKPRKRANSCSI

Sequence of Mas-related G-protein coupled receptor member X2 (Q96LB1 whole entry): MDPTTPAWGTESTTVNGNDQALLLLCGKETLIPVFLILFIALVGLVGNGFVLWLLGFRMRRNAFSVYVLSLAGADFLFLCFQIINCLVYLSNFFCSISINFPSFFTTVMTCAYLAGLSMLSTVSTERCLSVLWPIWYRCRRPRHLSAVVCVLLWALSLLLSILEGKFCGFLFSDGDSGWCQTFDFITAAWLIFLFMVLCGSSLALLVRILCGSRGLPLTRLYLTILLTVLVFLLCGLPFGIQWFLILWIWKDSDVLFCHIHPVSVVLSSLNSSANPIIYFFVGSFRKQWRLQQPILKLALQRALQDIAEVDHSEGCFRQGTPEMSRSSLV

In the case of `CN(C)[C@H]1CCN(c2cc(-c3ccccc3)nc3ccnn23)C1` [(S)-ZINC-3573], the EC50 [1] is reported as greater than 100 µM.
Work on `CSc1cccnc1N1CCN(Cc2nc3ccccc3[nH]2)CC1` [A-769] yielded an EC50 (D(4) dopamine receptor) greater than 10 µM.
`COc1ccc2c(c1)O[C@H](c1ccc(OC)c(OC)c1)C[C@@H]2NC(=O)C1(c2ccc3c(c2)OC(F)(F)O3)CC1` [A-1596584] showed an EC50 [2] greater than 3 µM.
Compound `CCCOc1ccc([C@@H]2[C@@H](C(=O)O)[C@H](c3ccc4c(c3)OCO4)CN2CC(=O)Nc2c(CC)cccc2CC)cc1` [A-1806262] has an IC50 [3] greater than 10 µM.
Compound `Cc1cnc(-c2cc(Cl)ccc2F)cc1-n1c(=O)n(CC(N)=O)c2ccccc21` [Al11] has an IC50 (TGF-beta receptor type-1) greater than 10 µM and an IC50 (Activin receptor type-1B) greater than 10 µM.
In the case of `CN(C)c1ncnc(-c2ccc3nc(Nc4cc(CN5CCN(C(=O)CC(F)(F)F)CC5)ccn4)[nH]c3c2)c1Cl` [BAY-440], the IC50 [4] is reported as greater than 27 µM and the IC50 [5] is reported as greater than 27 µM.
With `Cc1noc([C@H]2C[C@@H](c3ccc(C(F)(F)F)cc3)CN(C(=O)N3CCS(=O)(=O)C3)C2)n1` [BAY-448] the IC50 [6] was greater than 10 µM.
For `O=C(Nc1ccc(Oc2ccc(F)cc2)cc1)N1CCc2ncccc2[C@H]1c1ccc(F)cc1` [BAY-897], the IC50 [7] was greater than 16 µM.
With `CCOCCn1cc(C(=O)Nc2ccc(-n3nc(-c4cccnc4)cc3C(F)(F)F)cn2)ccc1=O` [BI 1935] the IC50 [8] was less than 0.001 µM.
For `C[C@H](NC(=O)Nc1cc2[nH]ncc2c(CO)n1)c1ccccn1` [ERKi-NC], the IC50 [9] was greater than 10 µM.
Compound `C[C@@H](NC(=O)Nc1cc2[nH]ncc2c(CO)n1)c1ccccc1` [ERKi] has an IC50 [10] of 0.85 µM.
For `COc1cc2ncn(-c3cc(OCc4ccccc4C(F)(F)F)c(C(N)=O)s3)c2cc1OC` [GW843682X], the IC50 [11] was 0.14 µM.
Work on `C[C@@H]1CN(c2cc(-c3nn(C)c4ccc(OC5(C)CC5)cc34)ncn2)C[C@H](C)O1` [MLi-2-NC] yielded an EC50 [12] of 0.421 µM.
`Cc1cc(Nc2nccc(C)n2)cc(-c2cnc([C@@]3(O)CC[C@H](C(=O)O)C(C)(C)C3)s2)c1` [MRL-SYKi] gave an IC50 [13] of 0.038 µM.
`CN1CCN(C(=O)C(C)(C)c2ccc(C(=O)Nc3cn4cc(-c5cc(C(C)(C)C)cc(C(C)(C)C)c5)ccc4n3)cc2)CC1` [T3-CLK-N] gave an IC50 [14] greater than 10 µM, an IC50 [15] greater than 10 µM and an IC50 [16] greater than 10 µM.
In the case of `CN1CCN(C(=O)C(C)(C)c2ccc(C(=O)Nc3cn4cc(-c5ccncc5)ccc4n3)cc2)CC1` [T3-CLK], the IC50 [17] is reported as 0.004 µM and the IC50 [18] is reported as greater than 0.002 µM.
In the case of `Cc1nc(Cc2cccc(C(F)(F)F)c2)sc1-c1ccc(C(N)=O)nc1` [TP-024n], the EC50 [19] is reported as greater than 1 µM.
